Reference: patent US20200330446A1, “COMPOSITIONS AND METHODS OF TREATING SKIN FIBROTIC DISORDERS” (AIVIVA BIOPHARMA, INC., priority 2015, published 2020)
“Also recorded” adds a separate entry of the source.

Tests used:
[1] = test system: full-thickness excision wounds on the dorsum of Yucatan minipigs; assay: Yucatan minipig full-thickness excision wound model, histologic evaluation (H&E, Mason's Trichrome); assay type: in vivo; settings: for Fibroplasia; dermis, Average Scores / Neovascularization; dermis, Average Scores: minipig wound sites after two doses, Day 59 post wound, average of individual scores, scale 1 minimal to 5 severe
Text: Porcine skin resembles human skin in many aspects. Both species have a relatively thick epidermis, distinct rete pegs, dermal papillae, and dense elastic fibers in the dermis. Furthermore, unlike rodents and rabbits, porcine skin is adherent to the subcutaneous structures, similar to human skin. Because of these anatomical similarities and other parallelisms in wound healing, porcine models have emerged as important foundations for the study of pathophysiology and potential treatment paradigms for abnormal wound healing. It has also been observed in porcine full-thickness wound healing in Yucatan Minipigs that the spatial and temporal expressions of TGF-β1, PDGF and VEGF were similar to the patterns for the growth factors described above. Therefore, the full-thickness excision models in Yucatan minipigs are the models for human wound healing studies.
(§1) In this experiment, multiple full-thickness excision wounds were made to the dorsum of Yucatan minipigs, and the wound sites were allowed to re-epithelialized adequately. At four weeks post-wound, the wound sites had normal to pink vascularity and had pliability. Epidermal hyperplasia was observed, as expected for regenerative responses in the full-thickness wounds.
(§2) On Day 28 post-wound, a dose (e.g., 1%) of axitinib, nintedanib, riociguat, sorafenib, sunitinib, and/or lenvatinib was administered into the dermal tissue at or around the wound sites, once every two weeks on two occasions. One wound site was left untreated as the control for each pig. Please note that the particular parameters in this example are only for illustration. One skilled in the art would appreciate that the dosages, administration methods, treatment regimen, and the administration sites may be varied to achieve similar results.
On Day 59 post wound, the minipigs were sacrificed and dermal tissues were collected for qualitative and quantitative evaluation using hematoxylin and eosin, and Mason's Trichrome staining. Dermal fibroplasia was characterized by increased numbers of fibroblasts in the dermis suspended in variable amounts of collagen in wounds.

TGF-β1 mRNA [2] = assay: TGF-β1 mRNA expression by qRT-PCR in rabbit ear wound sites; assay type: in vivo, New Zealand White rabbits; settings: for Rabbit TGFB1 mRNA Expression Fold by Treatment Relative to Untreated Wounded (mean ± SD): rabbit ear wound sites, Treated (each drug), N 5 or 6, intradermal; for mean TGFb1 mRNA level after intradermal treatment, in words: rabbit ear, compared with the vehicle-treated wound
Method: (§3) Eight wounds were created on the ventral surface of the ears of each of New Zealand White rabbits using skin punch biopsies, and then the wounds were allowed to heal for approximately 2 weeks.
(§4) A dose (e.g., 1%) of axitinib, nintedanib, riociguat, sorafenib, sunitinib, and/or lenvatinib was administered into the dermal tissue, once every two weeks on two occasions. Again, the specific doses, treatment methods and schedules are for illustration only. One skilled in the art would appreciate that variations and modifications are possible to achieve similar results.
(§5) On Day 42 post wound, the rabbits were sacrificed and dermal tissues were collected for qualitative and quantitative evaluation using hematoxylin and eosin and Mason's Trichrome staining. In addition, TGF-β1 mRNA expression levels were measured using qRT-PCR.

[3] = test system: rabbit ear hypertrophic scar; assay: Rabbit ear hypertrophic scar model, histologic evaluation (H&E, Mason's Trichrome); assay type: in vivo, New Zealand White rabbits; settings: intradermal, Day 42 post wound, compared with untreated and vehicle-treated wound; for fibrosis of treated wound, in words / neovascularization of treated wound, in words: once every two weeks on two occasions
Text: In rabbits, wounds are created down to the bare cartilage on the ventral surface of the ear using a dermal biopsy punch. […] By both appearance and histological analysis, these scars resemble human hypertrophic scars. In this established model, it was shown that reduced TGF-β expression results in reduced scarring, which is consistent with the current understanding of the pathogenesis of excessive scarring/dermal fibrosis. […] Thus, this rabbit model was also used to assess the compounds of the invention.
as §3, §4, §5
Histologic slides for hematoxylin and eosin stainings were prepared from the wound sites. Tissues were evaluated qualitatively for inflammation, neovascularization, granulation tissue, degrees of re-epithelialization, and degrees of scarring (avascular collagen).

TGF-β1 mRNA [4] = assay: TGF-β1 mRNA expression by qRT-PCR in Yucatan pig skin wound sites; assay type: in vivo, Yucatan minipigs; settings: minipig; compared to unwounded normal skin
Text: as §1, §2
In addition, total mRNA was isolated from skin biopsies of the treated wound sites and the untreated unwounded sites of the pigs. The mRNA samples were used to prepare cDNA and analyzed via qRT-PCR. The TGF-β1 expression levels were assessed using beta actin as a reference gene.

[5] = minipig, two biweekly treatments, histopathology relative to the untreated wound

Row | SMILES | Fibroplasia; dermis, Average Scores [1] | Neovascularization; dermis, Average Scores [1] | Rabbit TGFB1 mRNA Expression Fold by Treatment Relative to Untreated Wounded (mean ± SD) (TGF-β1 mRNA [2]) | re-epithelialization of treated wound, in words [3] | fibrosis of treated wound, in words [3] | neovascularization of treated wound, in words [3] | mean TGFb1 mRNA level after intradermal treatment, in words (TGF-β1 mRNA [2]) | dermal fibroplasia / fibrosis at treated wound, in words [1, 5] | neovascularization at treated wound, in words [1, 5] | TGF-β1 mRNA expression level at treated wounds, in words (TGF-β1 mRNA [4]) | scar tissues of treated wound, in words [3]
1 | CNC(=O)c1ccccc1Sc1ccc2c(/C=C/c3ccccn3)n[nH]c2c1 [axitinib] | (2.33) | (1.67) | 0.87 ± 0.28 Fold |  |  |  |  |  |  |  | 
2 | COc1cc2nccc(Oc3ccc(NC(=O)NC4CC4)c(Cl)c3)c2cc1C(N)=O [lenvatinib] | (3.00) | (2.33) | 0.66 ± 0.25 Fold | similar | similar | similar | lower |  |  |  | 
3 | COC(=O)c1ccc2c(c1)NC(=O)/C2=C(\Nc1ccc(N(C)C(=O)CN2CCN(C)CC2)cc1)c1ccccc1 [nintedanib] | (2.33) | (1.67) | 0.73 ± 0.13 Fold |  | decreased | decreased; also recorded: much less | lower | reduced | noticeably reduced | most effective | less
4 | COC(=O)N(C)c1c(N)nc(-c2nn(Cc3ccccc3F)c3ncccc23)nc1N [riociguat] | (2.67) | (2.67) | 1.14 ± 0.14 Fold |  | slightly decreased | slightly decreased |  |  |  | most effective | 
5 | CNC(=O)c1cc(Oc2ccc(NC(=O)Nc3ccc(Cl)c(C(F)(F)F)c3)cc2)ccn1 [sorafenib] | (3.00) | (2.33) | 0.87 ± 0.13 Fold |  |  | slightly increased | lower |  |  | most effective | 
6 | CCN(CC)CCNC(=O)c1c(C)[nH]c(/C=C2\C(=O)Nc3ccc(F)cc32)c1C [sunitinib] | (2.67) | (2.33) | 0.76 ± 0.23 Fold |  |  |  |  |  |  |  | 
